Measurements published in US12649733B2, “3,6-diamino-pyridazin-3-yl derivatives, pharmaceutical compositions containing them and their uses as pro-apoptotic agents” (LES LABORATOIRES SERVIER, priority 2019, dated 2026).

Legend:
MOLT-4 cells = assay: MOLT-4 cell viability, MTT assay; assay type: cell-based; conditions: Homo sapiens, MOLT-4, 48 h, 48 h exposure
Procedure, shortened: (§1)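 Cells grown in RPMI 1640 with 10% heat-inactivated FBS at 37° C, 5% CO2, exposed 48 h to nine 3.16-fold serial compound dilutions in triplicate. MTT added for 4 h, SDS/HCl solubilisation overnight, absorbance at 540 nm; IC50 by four-parameter fit.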

H146 cells = assay: H146 cell viability, MTT assay; assay type: cell-based; conditions: Homo sapiens, NCI-H146, 48 h, 48 h exposure
Procedure, shortened: as §1

BCLXL [1] = target: T1, BCLXL (Homo sapiens, UniProt Q07817, V10N/V9A); assay: Fluorescence polarisation assay (PUMA-based probe displacement); assay type: binding; further: 20 nM protein, 10 nM fluorescent probe
BCLXL [2] = target: T1, BCLXL; assay: AlphaLISA assay (BIM peptide displacement); assay type: binding; conditions: 20 pM protein, 1 nM peptide
Method: AlphaLISA assay measures an increase in alpha signal upon binding biotinylated GST(1-218)-(FACTOR_XA)-hs ? (2-209)(SEQ ID:02—GST UniProtKB® primary accession number P08515 and BCLXL UniProtKB® primary accession number Q07817-1) coupled to a Streptavidin labeled Alpha donor bead to N-terminally labeled peptide derived from BIM (Fluorescein-betaAla-Ahx-SEQID:05, wherein SEQ ID:05 is […]) coupled to an Anti-FTIC AlphaLISA acceptor bead.
GST(1-218)(FACTOR_XA)-hs ? (2-209) was biotinylated in 50 mM phosphate buffer using a 20 fold excess of EZ Link NHS-LC-Biotin (thermoFisher catalogue number 21336) overnight at 4° C.
The addition of a compound which binds competitively to the same site as the peptide will result in an decrease in the Alpha signal of the available donor bead-protein-peptide-acceptor bead complex due to displacement of the peptide.
An 11-point serial dilution of each compound was prepared in DMSO, the final buffer conditions were 10 mM 4-(2-hydroxyethyl)-1-piperazineethanesulfonic acid [HEPES], 150 mM NaCl, 0.05% Tween 20, pH 7.4 and 4% DMSO. The final protein concentration in the assay was 20 pM with the peptide present at 1 nM). Alpha beads were used at a final concentration of 5 ug/mL. The experiments were incubated for overnight at 23° C. after acceptor bead addition. Finally the donor bead is added and incubated for 2 hours at 23° C. before Alpha signal measured on a Biotek Synergy2 plate reader (Excitation 680 nm, emission 615 nm).

Bcl-xL protein = target: T2, Bcl-xL protein (Homo sapiens, UniProt Q07817, N197C); assay: Fluorescence quenching assay (PUMA peptide displacement); assay type: binding; conditions: 1 nM protein, 400 nM peptide, 2 hours at 23° C.; KI determined from IC50
T2 construct: (2-197)[N197C]; His-His (two His8 stretches joined by a Gly/Ala/Ser/Thr linker)
Procedure, shortened: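 Displacement of a TQ5WS-quencher-labelled PUMA peptide (400 nM) from Cy5-labelled His-tagged Bcl-xL 2-197 N197C (1 nM) raises fluorescence. An 11-point compound dilution was incubated 2 h at 23 °C in HEPES 10 mM, NaCl 150 mM, 0.05% Tween 20, pH 7.4, 5% DMSO. Fluorescence was read at Ex 620/Em 680 nm, and KI was derived from IC50.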

T1 sequence (Q07817 with tags, fused parts or gaps V9A/V10N): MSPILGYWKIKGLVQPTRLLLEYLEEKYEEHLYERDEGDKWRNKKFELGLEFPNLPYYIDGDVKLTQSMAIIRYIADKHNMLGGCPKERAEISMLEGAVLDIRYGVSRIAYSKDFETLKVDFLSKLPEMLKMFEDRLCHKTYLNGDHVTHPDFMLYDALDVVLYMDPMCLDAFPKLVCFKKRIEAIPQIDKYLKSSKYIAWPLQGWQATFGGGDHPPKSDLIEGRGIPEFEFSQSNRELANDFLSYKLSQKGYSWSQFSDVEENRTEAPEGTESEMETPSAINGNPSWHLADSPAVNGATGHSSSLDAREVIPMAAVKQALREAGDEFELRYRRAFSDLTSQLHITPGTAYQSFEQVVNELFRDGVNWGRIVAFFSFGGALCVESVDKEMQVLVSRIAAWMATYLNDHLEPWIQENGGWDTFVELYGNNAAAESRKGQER
T2 sequence (Q07817 2-197 N197C): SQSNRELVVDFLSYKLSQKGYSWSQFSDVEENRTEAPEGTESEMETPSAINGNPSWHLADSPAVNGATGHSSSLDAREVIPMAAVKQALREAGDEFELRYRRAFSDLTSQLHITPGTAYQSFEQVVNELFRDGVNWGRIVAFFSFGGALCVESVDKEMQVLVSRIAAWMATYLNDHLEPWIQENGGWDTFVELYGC

| SMILES | IC50 (MOLT-4 cells) | IC50 (H146 cells) | Ki (BCLXL [1]) | IC50 (BCLXL [2]) | Ki (Bcl-xL protein) |
| --- | --- | --- | --- | --- | --- |
| Cc1cc(N(C)c2nc(C(=O)O)c(C3CCN(S(=O)(=O)Cc4ccccc4)CC3)s2)nnc1Nc1nc2ccccc2s1 [Example 95, 2-({6-[(1,3-Benzothiazol-2-yl)amino]-5-methylpyridazin-3-yl}(methyl)amino)-5-(1-phenylmethanesulfonylpiperidin-4-yl)-1,3-thiazole-4-carboxylic acid] | 5010 nM | 9270 nM | 24 nM | 22 nM | – |
| COC(CO)CCN(c1cc(C)c(Nc2nc3ccccc3s2)nn1)c1nc(C(=O)O)cs1 (stereo not drawn) [Example 98, 2-[[6-(1,3-Benzothiazol-2-ylamino)-5-methyl-pyridazin-3-yl]-(4-hydroxy-3-methoxy-butyl)amino]thiazole-4-carboxylic acid] | > 15000 nM | > 15000 nM | 2.3 nM | 1.8 nM | – |
| Cc1cc(N(C)c2nc(C(=O)O)c(CCCOc3ccc(C#CC[N+](C)(C)CCCS(=O)(=O)[O-])cc3F)s2)nnc1Nc1nc2ccccc2s1 [Example 101, 3-[3-[4-[3-[2-[[6-(1,3-Benzothiazol-2-ylamino)-5-methyl-pyridazin-3-yl]-methyl-amino]-4-carboxy-thiazol-5-yl]propoxy]-3-fluoro-phenyl]prop-2-ynyl-dimethyl-ammonio]propane-1-sulfonate] | 483 nM | 1190 nM | < 1 nM | 0.0022 nM | – |
| CNCC#Cc1ccc(OCCCc2sc(N(CCC(O)CO)c3cc(C)c(Nc4nc5ccccc5s4)nn3)nc2C(=O)O)c(F)c1 (stereo not drawn) [Example 108, 2-[[6-(1,3-Benzothiazol-2-ylamino)-5-methyl-pyridazin-3-yl]-(3,4-dihydroxybutyl)amino]-5-[3-[2-fluoro-4-[3-(methylamino)prop-1-ynyl]phenoxy]propyl]thiazole-4-carboxylic acid] | 46.7 nM | 22.3 nM | < 1 nM | 0.0066 nM | – |
| CNCC#Cc1ccc(OCCCc2sc(N(CCCCO)c3cc(C)c(Nc4nc5ccccc5s4)nn3)nc2C(=O)O)c(F)c1 [Example 114, 2-({6-[(1,3-Benzothiazol-2-yl)amino]-5-methylpyridazin-3-yl}(4-hydroxybutyl)amino)-5-(3-{2-fluoro-4-[3-(methylamino)prop-1-yn-1-yl]phenoxy}propyl)-1,3-thiazole-4-carboxylic acid] | 3.81 nM | 1.58 nM | – | 0.053 nM | 0.011 nM |
| Cc1cc(N(C)c2nc(C(=O)O)c(CC(C)COc3ccc(C#CCN(C)C)cc3F)s2)nnc1Nc1nc2ccccc2s1 (stereo not drawn) [Example 116, 2-({6-[(1,3-Benzothiazol-2-yl)amino]-5-methylpyridazin-3-yl}(methyl)amino)-5-(3-{4-[3-(dimethylamino)prop-1-yn-1-yl]-2-fluorophenoxy}-2-methylpropyl)-1,3-thiazole-4-carboxylic acid] | 3.06 nM | 19.1 nM | – | 0.017 nM | 0.0086 nM |
| CNCC#Cc1ccc(OCCCc2sc(N(CC(O)CO)c3cc(C)c(Nc4nc5ccccc5s4)nn3)nc2C(=O)O)c(F)c1 (stereo not drawn) [Example 117, 2-[[6-(1,3-Benzothiazol-2-ylamino)-5-methyl-pyridazin-3-yl]-(2,3-dihydroxypropyl)amino]-5-[3-[2-fluoro-4-[3-(methylamino)prop-1-ynyl]phenoxy]propyl]thiazole-4-carboxylic acid] | 486 nM | 49.6 nM | – | 0.0099 nM | 0.0066 nM |
| CNCC#Cc1ccc(OCCCc2sc(N(CC(CO)OC)c3cc(C)c(Nc4nc5ccccc5s4)nn3)nc2C(=O)O)c(F)c1 (stereo not drawn) [Example 118, 2-[[6-(1,3-Benzothiazol-2-ylamino)-5-methyl-pyridazin-3-yl]-(3-hydroxy-2-methoxy-propyl)amino]-5-[3-[2-fluoro-4-[3-(methylamino)prop-1-ynyl]phenoxy]propyl]thiazole-4-carboxylic acid] | 96 nM | 32.6 nM | – | 0.018 nM | 0.033 nM |
| CNCC#Cc1ccc(OCCCc2sc(N(CCCC(O)CO)c3cc(C)c(Nc4nc5ccccc5s4)nn3)nc2C(=O)O)c(F)c1 (stereo not drawn) [Example 119, 2-[[6-(1,3-Benzothiazol-2-ylamino)-5-methyl-pyridazin-3-yl]-(4,5-dihydroxypentyl)amino]-5-[3-[2-fluoro-4-[3-(methylamino)prop-1-ynyl]phenoxy]propyl]thiazole-4-carboxylic acid] | 97.4 nM | 21.4 nM | < 1 nM | 0.006 nM | – |
| Cc1cc(N(CCC(O)CO)c2nc(C(=O)O)c(CCCOc3ccc(C#CCN(C)C)cc3F)s2)nnc1Nc1nc2ccccc2s1 (stereo not drawn) [Example 123, 2-[[6-(1,3-Benzothiazol-2-ylamino)-5-methyl-pyridazin-3-yl]-(3,4-dihydroxybutyl)amino]-5-[3-[4-[3-(dimethylamino)prop-1-ynyl]-2-fluoro-phenoxy]propyl]thiazole-4-carboxylic acid] | 16.5 nM | 6.25 nM | < 1 nM | 0.004 nM | – |
| CNCC#Cc1ccc(OCCCc2sc(N(CCCO)c3cc(C)c(Nc4nc5ccccc5s4)nn3)nc2C(=O)O)c(F)c1 [Example 127, 2-[[6-(1,3-Benzothiazol-2-ylamino)-5-methyl-pyridazin-3-yl]-(3-hydroxypropyl)amino]-5-[3-[2-fluoro-4-[3-(methylamino)prop-1-ynyl]phenoxy]propyl]thiazole-4-carboxylic acid] | 11.3 nM | 9.04 nM | < 1 nM | 0.0066 nM | – |
| Cc1cc(N(CCCCO)c2nc(C(=O)O)c(CCCOc3ccc(C#CC[N+](C)(C)CCCS(=O)(=O)[O-])cc3F)s2)nnc1Nc1nc2ccccc2s1 [Example 130, 3-[3-[4-[3-[2-[[6-(1,3-Benzothiazol-2-ylamino)-5-methyl-pyridazin-3-yl]-(4-hydroxybutyl)amino]-4-carboxy-thiazol-5-yl]propoxy]-3-fluoro-phenyl]prop-2-ynyl-dimethyl-ammonio]propane-1-sulfonate] | 108 nM | 201 nM | < 1 nM | 0.0054 nM | – |
| Cc1cc(N(C)c2nc(C(=O)O)c(CC3(COc4ccc(C#CCN(C)C)cc4F)CC3)s2)nnc1Nc1nc2ccccc2s1 [Example 140, 2-({6-[(1,3-Benzothiazol-2-yl)amino]-5-methylpyridazin-3-yl}(methyl)amino)-5-{[1-({4-[3-(dimethylamino)prop-1-yn-1-yl]-2-fluorophenoxy}methyl)cyclopropyl]methyl}-1,3-thiazole-4-carboxylic acid] | 23.4 nM | 142 nM | < 1 nM | 0.024 nM | – |
| Cc1cc(N(CCCCO)c2nc(C(=O)O)c(CCCOc3ccc(C#CCN(CCCS(=O)(=O)O)CCCS(=O)(=O)O)cc3F)s2)nnc1Nc1nc2ccccc2s1 [Example 147, 2-({6-[(1,3-Benzothiazol-2-yl)amino]-5-methylpyridazin-3-yl}(4-hydroxybutyl)amino)-5-[3-(4-{3-[bis(3-sulfopropyl)amino]prop-1-yn-1-yl}-2-fluorophenoxy)propyl]-1,3-thiazole-4-carboxylic acid] | – | – | – | 0.0071 nM | 0.0097 nM |
| Cc1cc(N(CCCCO)c2nc(C(=O)O)c(CCCOc3ccc(C#CCNCCCS(=O)(=O)O)cc3F)s2)nnc1Nc1nc2ccccc2s1 [Example 148, 2-[[6-(1,3-Benzothiazol-2-ylamino)-5-methyl-pyridazin-3-yl]-(4-hydroxybutyl)amino]-5-[3-[2-fluoro-4-[3-(3-sulfopropylamino)prop-1-ynyl]phenoxy]propyl]thiazole-4-carboxylic acid] | – | – | – | 0.0057 nM | 0.0012 nM |
| Cc1cc(N(C)c2nc(C(=O)O)c(C[C@H](C)COc3ccc(C#CCN(C)C)cc3F)s2)nnc1Nc1nc2ccccc2s1 [Example 161, 2-({6-[(1,3-Benzothiazol-2-yl)amino]-5-methylpyridazin-3-yl}(methyl)amino)-5-[(2S)-3-{4-[3-(dimethylamino)prop-1-yn-1-yl]-2-fluorophenoxy}-2-methylpropyl]-1,3-thiazole-4-carboxylic acid] | 3.23 nM | 30.2 nM | < 1 nM | 0.032 nM | – |
